Values of other authors in US20240130871A1, “DRUG-COATED ENDOVASCULAR DEVICES” (UNIVERSITY OF SOUTH CAROLINA, priority 2022, published 2024).

Settings: current DCB devices

For `CC(=O)O[C@H]1C(=O)[C@@]2(C)[C@H]([C@H](OC(=O)c3ccccc3)[C@]3(O)C[C@H](OC(=O)[C@H](O)[C@@H](NC(=O)c4ccccc4)c4ccccc4)C(C)=C1C3(C)C)[C@]1(OC(C)=O)CO[C@@H]1C[C@@H]2O` [PTX, paclitaxel], which “delivered PTX lost to systemic circulation” value is on record?
The value was > 90%.
